We go through 72 compounds from the OPERA property sets (Mansouri et al. 2018).

Settings in the first data set: not given
Broadly, the melting point is the temperature of the solid-liquid transition. Compound `S=C(SN1CCOCC1)N1CCOCC1` had a melting point of 139 °C.

Consider `O=C(O)c1ccccc1C(=O)Nc1ccc(S(=O)(=O)Nc2nccs2)cc1`, for which the melting point amounted to 273 °C.

Compound `CC(C)OC(=O)Nc1ccccc1` gave a log10 Koc (L/kg) of 1.83, a log10 vapour pressure (mmHg) of -3.85 and a melting point of 87.3 °C. `CCC(=O)CC(=O)CC`: the ready biodegradability result is reported as “readily biodegradable”. Turning to `CC(C)(C)[C@H](O)/C(=C\c1ccc(Cl)cc1)n1cncn1`, the melting point is 153 °C.

`N#CC1=C(C#N)C(=O)C(Cl)=C(Cl)C1=O` gave a melting point of 214 °C. One may read the boiling point as the temperature at which the vapour pressure of the liquid equals the pressure above it. Compound `Fc1c(F)c(F)c2c(F)c(F)c(F)c(F)c2c1F` yielded a boiling point of 209 °C and a melting point of 87.5 °C. Regarding `CCC(c1ccc2cc(OC)ccc2c1)C(C)(C)C(=O)O` (centres undefined), the melting point came to 140 °C. `C[C@@H](CN)c1ccccc1` had a boiling point of 210 °C. For the compound `CCCOC(=O)CCC(=O)OCCC`, the boiling point stood at 251 °C and the melting point was -5.9 °C.

As for `Cc1cccc(C)c1Cl`, the boiling point came to 186 °C and the melting point was -35 °C. In turn, `N#CCC(N)=O` yielded a melting point of 122 °C. Compound `Cl.N=C(N)SCc1ccc(Cl)cc1` gave a melting point of 197 °C. `O=C(c1ccccc1)c1cccnc1` had a boiling point of 307 °C and a melting point of 38 °C. In the case of `FC(F)(Cl)C(Cl)(Cl)C(F)(F)Cl`, the boiling point turned out to be 112 °C and the melting point was -42.9 °C. Regarding `O=C(O)CCCCCBr`, the melting point is 35 °C.

In turn, `O=C(NCO)NS(=O)(=O)c1ccc(NC(=O)c2ccccc2C(=O)O)cc1` returned a melting point of 162 °C. Regarding `C1=CCCC=CCCC=CCC1`, the boiling point amounted to 240 °C, the melting point was -9.25 °C and the ready biodegradability result is on record as “not readily biodegradable”. Compound `CC1=NCCO1` registered a boiling point of 111 °C. As for `c1ccc(CSc2ccccc2)cc1`, the melting point is 43.5 °C.

Compound `C=CCc1ccc(OC=O)c(OC)c1` displayed a boiling point of 270 °C.

The compound `CCOc1cccc([N+](=O)[O-])c1` had a boiling point of 264 °C and a melting point of 36 °C. Regarding `CCN(CC)c1nc(Cl)nc(NC(C)C)n1`, the log10 Koc (L/kg) was 2.91.

With `NC1CCCCC1`, the boiling point was 134 °C, the log10 Henry constant (atm·m³/mol) was -5.38, the log10 vapour pressure (mmHg) is 1 and the melting point is -17.7 °C. Moreover, the ready biodegradability entry was “readily biodegradable”. Take `C1=NNCC1`: the boiling point stood at 144 °C.

The compound `CC(C)c1cc(Oc2ccccc2)cc(C(C)C)c1NC(=S)NC(C)(C)C` returned a melting point of 146 °C. In turn, `Cc1cc(C)c(N)cc1C` returned a boiling point of 234 °C, a log10 Henry constant (atm·m³/mol) of -5.61, a log10 vapour pressure (mmHg) of -2.05 and a melting point of 68 °C.

Regarding `c1cc2ccc3ccc4ccc5cccc6c(c1)c2c3c4c56`, the log10 Henry constant (atm·m³/mol) was -6.48, the log10 Koc (L/kg) was 4.61, the log10 biodegradation half-life (days) is 2.75 and the log10 vapour pressure (mmHg) is -10. For the same compound, the melting point was determined as 278 °C. `CC1(C)CCCC1` registered a boiling point of 87.5 °C, a log10 biodegradation half-life (days) of 1.28, a log10 vapour pressure (mmHg) of 1.88 and a melting point of -69.8 °C. `Clc1ccc(Cl)c(-c2c(Cl)cccc2Cl)c1Cl` displayed a log10 Koa of 8.53. `CC(O)(P(=O)(O)O)P(=O)(O)O`: the ready biodegradability result is recorded as “readily biodegradable”. Compound `ClC(Cl)=C(c1ccc(Cl)cc1)c1ccc(Cl)cc1` returned a boiling point of 336 °C, a log10 Henry constant (atm·m³/mol) of -4.38, a log10 Koa of 9.68 and a log10 Koc (L/kg) of 4.82. Moreover, the log10 vapour pressure (mmHg) is -5.22 and the melting point worked out at 89 °C. On to `Cc1nc(C(F)(F)F)c(C(O)=Nc2c(Br)cc(OC(F)(F)F)cc2Br)s1`, for which the melting point stood at 178 °C. `C#CCC1CCCCC1` displayed a boiling point of 158 °C. As for `CC(C)CCN(CCC(C)C)CCC(C)C`, the boiling point is 235 °C. Turning to `C=CCc1cc2c(c(OC)c1OC)OCO2`, the boiling point amounted to 285 °C and the melting point stood at 29.5 °C. With `OCC1CCCC1`, the boiling point is 163 °C.

In the case of `Clc1ccccc1C(c1ccccc1)(c1ccccc1)n1ccnc1`, the melting point was determined as 148 °C. `O=[N+]([O-])c1ccc(N=Nc2ccc(N(CCO)CCO)cc2Cl)cc1` displayed a melting point of 190 °C.

Compound `CCCCCCCCOC(=O)CCCCCC` showed a boiling point of 290 °C and a melting point of -22.5 °C. In the case of `CC(C)(O)C(=O)c1ccc(OCCO)cc1`, the melting point came out at 89 °C. With `Cc1ccnc2ccccc12`, the boiling point is 262 °C, the log10 vapour pressure (mmHg) is -2.2 and the melting point came to 9.5 °C. `Brc1cscc1Br` registered a boiling point of 222 °C and a melting point of 4.5 °C. Compound `CC(C)(C)CC1(C)CO1` (centres undefined) gave a boiling point of 141 °C and a melting point of -64 °C. Turning to `C[C@]12CC[C@H](O)C=C1CC[C@@H]1[C@@H]2CC[C@]2(C)[C@@H](c3ccc(=O)oc3)CC[C@]12O`, the melting point turned out to be 235 °C.

In the case of `O=[N+]([O-])c1ccc(C=NO)cc1`, the melting point was determined as 128 °C. With `O=C(O)c1cccc(Cl)n1`, the log10 Koc (L/kg) is 1.37 and the ready biodegradability result is listed as “not readily biodegradable”. In the case of `C=CC(C)(O)CC` (centres undefined), the boiling point was 118 °C.

As for `CC(=O)/C=C/C1C(C)=CCCC1(C)C` (centres undefined), the log10 vapour pressure (mmHg) was -1.76. Compound `Cc1c2ccccc2cc2ccccc12` displayed a log10 Koc (L/kg) of 4.81, a log10 biodegradation half-life (days) of 2.42, a log10 vapour pressure (mmHg) of -4.4 and a melting point of 81.5 °C. On to `Cc1c(Cc2cc(C(C)(C)C)c(O)c(C(C)(C)C)c2)c(C)c(Cc2cc(C(C)(C)C)c(O)c(C(C)(C)C)c2)c(C)c1Cc1cc(C(C)(C)C)c(O)c(C(C)(C)C)c1`, for which the melting point was found to be 244 °C and the ready biodegradability entry is reported as “not readily biodegradable”. For the compound `CC(=O)NC(Cc1c[nH]c2ccccc12)C(=O)O` (centres undefined), the melting point was 190 °C.

Consider `C[C@@H]1C[C@H](N(C)C)[C@@H](O)[C@H](O[C@H]2[C@@H](C)C[C@@H](C)C(=O)C=C[C@@H](C)[C@@H]([C@@H](C)O)OC(=O)[C@@H]2C)O1`, for which the melting point was found to be 157 °C. Take `CC1CCC(C)C1=O` (centres undefined): the boiling point came to 146 °C. Take `CC1C(=O)CC2CC1C2(C)C` (centres undefined): the boiling point is 212 °C. As to `Cc1ccc(F)cc1[N+](=O)[O-]`, the boiling point came out at 213 °C and the melting point is 27 °C. Consider `CCCC(=O)C(C)CC` (centres undefined), for which the boiling point is 154 °C. Regarding `O=Cc1ccccc1Cl`, the boiling point is 212 °C, the log10 vapour pressure (mmHg) is -0.638, the melting point came to 12.4 °C and the ready biodegradability entry is reported as “not readily biodegradable”. As to `Nc1cc2ccccc2cc1C(=O)O`, the melting point worked out at 216 °C. As for `CCCCCCCCCCCCCCCCCCOC(=O)CCc1cc(C(C)(C)C)c(O)c(C(C)(C)C)c1`, the ready biodegradability entry is “not readily biodegradable”. Consider `CCCCCCC(C)Cl` (centres undefined), for which the boiling point came to 172 °C and the log10 vapour pressure (mmHg) came to 0.136. In the case of `NS(=O)(=O)c1ccc(SCCCO)cc1`, the melting point stood at 117 °C.

Compound `CC[C@H]1C[N@@]2CC[C@H]1C[C@@H]2[C@@H](O)c1ccnc2ccccc12` showed a melting point of 268 °C. Turning to `CC(C)OC(=O)C1(S(=O)(=O)c2ccc([N+](=O)[O-])cc2)CCC1`, the melting point stood at 65.5 °C.

Regarding `NS(=O)(=O)c1ccccc1`, the melting point was determined as 151 °C and the ready biodegradability entry was “not readily biodegradable”. Consider `COc1ccc(C(=O)O)cc1OC`, for which the log10 vapour pressure (mmHg) was -3.61 and the melting point worked out at 181 °C. For `Oc1cc(F)cc(F)c1F`, the melting point was determined as 29 °C. The same measure, in the same setting: with `CCCCCC(=O)Cc1cc(O)cc2c1C(=O)Oc1cc(O)c(C(=O)O)c(CCCCC)c1O2` the figure was 205 °C; with `CC(C)(C)N=C=O`, 85.5 °C. `CCCCCCCCCCCCCCCCN` returned a boiling point of 322 °C, a log10 vapour pressure (mmHg) of -3.88 and a melting point of 46.8 °C.

Staying with this data set, now noted: fish.
Consider `C1=CCCC=CCCC=CCC1`, for which the log10 BCF came to 3.92 and the log10 biotransformation half-life (days) turned out to be 1.74.

For the compound `Clc1c(Cl)c(Cl)c(Oc2c(Cl)c(Cl)c(Cl)c(Cl)c2Cl)c(Cl)c1Cl`, the log10 biotransformation half-life (days) amounted to 1.8.

With `ClC(Cl)=C(c1ccc(Cl)cc1)c1ccc(Cl)cc1`, the log10 BCF is 4.08 and the log10 biotransformation half-life (days) worked out at 1.71. In the case of `Cc1c2ccccc2cc2ccccc12`, the log10 biotransformation half-life (days) stood at 0.23. Compound `Clc1ccc2c(oc3c(Cl)c(Cl)c(Cl)c(Cl)c32)c1Cl` came in with a log10 BCF of 2.78 and a log10 biotransformation half-life (days) of 0.43.

With `NS(=O)(=O)c1ccccc1`, the log10 BCF is 0.68 and the log10 biotransformation half-life (days) is -0.71.
